# In ChEMBL document CHEMBL3808308, “Synergistic potentiation of (-)-lomaiviticin A cytotoxicity by the ATR inhibitor VE-821” (Bioorg Med Chem Lett, 2016):
# pEC50: −log10 of the molar value.
# What was measured:
# [1] = test system: K562; assay: Potentiation of 0.125 nM (-)-lomaiviticin A-induced cytotoxicity against human K562 cells assessed as fraction ratio affected at 0.025 uM after 48 hrs by cell titer-glo luminescence assay; assay type: functional
# [2] = test system: K562; assay: Potentiation of 0.025 nM (-)-lomaiviticin A-induced cytotoxicity against human K562 cells assessed as combination index at 0.005 uM after 48 hrs by cell titer-glo luminescence assay; assay type: functional
# [3] = test system: K562; assay: Potentiation of 0.125 nM (-)-lomaiviticin A-induced cytotoxicity against human K562 cells assessed as combination index at 0.025 uM after 48 hrs by cell titer-glo luminescence assay; assay type: functional
# [4] = test system: K562; assay: Potentiation of 2.5 nM (-)-lomaiviticin A-induced cytotoxicity against human K562 cells assessed as combination index at 0.5 uM after 48 hrs by cell titer-glo luminescence assay; assay type: functional
# [5] = test system: K562; assay: Potentiation of 7 nM (-)-lomaiviticin A-induced cytotoxicity against human K562 cells assessed as combination index at 1.4 uM after 48 hrs by cell titer-glo luminescence assay; assay type: functional
# [6] = test system: K562; assay: Potentiation of 1.25 nM (-)-lomaiviticin A-induced cytotoxicity against human K562 cells assessed as fraction ratio affected at 0.25 uM after 48 hrs by cell titer-glo luminescence assay; assay type: functional
# [7] = test system: K562; assay: Cytotoxicity against human K562 cells assessed as decrease in cell viability after 24 to 48 hrs by cell titer-glo luminescence assay; assay type: cell-based
# [8] = test system: K562; assay: Potentiation of 2.5 nM (-)-lomaiviticin A-induced cytotoxicity against human K562 cells assessed as fraction ratio affected at 0.5 uM after 48 hrs by cell titer-glo luminescence assay; assay type: functional
# [9] = test system: K562; assay: Potentiation of (-)-lomaiviticin A-induced cytotoxicity against human K562 cells assessed as (-)-lomaiviticin A ED50 at compound to (-)-lomaiviticin A ratio of 200:1 after 48 hrs by cell titer-glo luminescence assay (reference value: 0.23776 nM); assay type: functional; settings: K562, 48 h, read-out: ED50 (the source's name)
# [10] = Cytotoxicity against human K562 cells assessed as decrease in cell viability after 48 hrs by cell titer-glo luminescence assay; assay type: cell-based; settings: read-out: ED50
# [11] = test system: K562; assay: Potentiation of 0.25 nM (-)-lomaiviticin A-induced cytotoxicity against human K562 cells assessed as combination index at 0.05 uM after 48 hrs by cell titer-glo luminescence assay; assay type: functional
# [12] = test system: K562; assay: Potentiation of 7 nM (-)-lomaiviticin A-induced cytotoxicity against human K562 cells assessed as fraction ratio affected at 1.4 uM after 48 hrs by cell titer-glo luminescence assay; assay type: functional
# [13] = test system: K562; assay: Potentiation of 1.25 nM (-)-lomaiviticin A-induced cytotoxicity against human K562 cells assessed as combination index at 0.25 uM after 48 hrs by cell titer-glo luminescence assay; assay type: functional
# [14] = test system: K562; assay: Potentiation of 0.25 nM (-)-lomaiviticin A-induced cytotoxicity against human K562 cells assessed as fraction ratio affected at 0.05 uM after 48 hrs by cell titer-glo luminescence assay; assay type: functional
# [15] = test system: K562; assay: Potentiation of 0.025 nM (-)-lomaiviticin A-induced cytotoxicity against human K562 cells assessed as fraction ratio affected at 0.005 uM after 48 hrs by cell titer-glo luminescence assay; assay type: functional
compound,measurement,setting,value
Cn1c(=O)n(-c2ccc(C(C)(C)C#N)cc2)c2c3cc(-c4cnc5ccccc5c4)ccc3ncc21 [DACTOLISIB],Ratio,[1],0.4369
same,CI,[2],8.288
same,CI,[3],2.3513
same,CI,[4],0.3901
same,CI,[5],0.3291
same,Ratio,[6],0.9514
same,Activity,[7],Dose-dependent effect
same,Ratio,[8],0.9739
same,pEC50,[9],7.69
same,CC50 at 48 h,[10],48.9 nM
same,CI,[11],0.8101
same,Ratio,[12],0.9929
same,CI,[13],0.3514
same,Ratio,[14],0.6128
same,Ratio,[15],0.2836
